Values of other authors in paper PMC11267572, “A Repurposed Drug Interferes with Nucleic Acid to Inhibit the Dual Activities of Coronavirus Nsp13” (ACS Chemical Biology, 2024).

Tested on: SARS-CoV-2 Omicron variant
Set-up: method as in PMID 36899912
Settings: bronchial epithelial cells; cited from earlier work

O=C(NCc1ccc(Oc2ccccc2)cc1)c1nc(-c2cc(Br)c(O)c(Br)c2)no1 [IOWH-032]
inhibition of viral replication: micromolar inhibition
